Values of other authors as cited in patent US20130102943A1, “RELOADABLE FINISHES FOR TEXTILES AND FORMULATIONS FOR LOADING SUCH FINISHES” (SCHOELLER TEXTIL AG, priority 2009, published 2013).

System: gram-negative and gram-positive bacteria, as well as yeasts and molds

CCCCCCCCCCCC(=O)N[C@@H](CCCNC(=N)N)C(=O)OCC.Cl [Lauroyl arginate, Ethyl-N-alpha-lauroyl-L-arginate HCl]
antimicrobial effectiveness: effective
